Measured values: PubChem BioAssay AID504657 (Sanford-Burnham Center for Chemical Genomics, 2011)
Calls of active or inactive are those of the source. The rule behind the calls is not given here.

System: S. cerevisiae tim10-1 mutant, luminescence counterscreen
Assay: inhibitors in tim10-1 mutant yeast luminescence, dose response, counter-screen for tim23-1 inhibitor project, S. cerevisiae, uHTS hits (AID 504657)

`CC(C)Cn1cnc2c(c(-c3ccccc3)c(-c3ccccc3)n2Cc2ccco2)c1=N` was tested. Which IC50 did it give?
The IC50 was > 100 µM (inactive).

`CCOC(=O)c1cccnc1SCc1cc(=O)n2ccccc2n1` was tested. Which IC50 did it give?
Its IC50 is > 100 µM (inactive).

`C(=C\c1ccccc1)/C=N/Nc1nc2ccccc2[nH]1` was tested. Which IC50 did it give?
The IC50 was > 100 µM (inactive).

`Cc1nc2ccc(C(C(F)(F)F)(C(F)(F)F)C(F)(F)F)cc2[nH]1` was tested. Which IC50 did it give?
Its IC50 is > 100 µM (inactive).

Which IC50 does the source give for `CN(C)/C=C1/C=C(c2ccccc2)OC1=O` here?
Its IC50 is 94.1 µM.

For `CCOC(=O)c1sc(=NC(=O)c2ccco2)n(C)c1C`, which IC50 is on record?
Its IC50 is > 100 µM (inactive).

For `O=C(N/N=C/C(Cl)=C\c1ccccc1)c1cccs1`, which IC50 is on record?
The IC50 was > 100 µM (inactive).

With `CCN(CC)S(=O)(=O)c1ccc(C(=O)OCn2nnc3ccccc3c2=O)cc1` as the compound, how does the IC50 read?
Its IC50 is > 100 µM (inactive).

How did the IC50 turn out when `COc1ccc(/C=C/C(=O)Nc2ccc3c(c2)CCC3)cc1OC` was run?
The IC50 was > 100 µM (inactive).

How did the IC50 turn out when `O=C(CSc1cccc[n+]1[O-])Nc1ccccc1Oc1ccccc1` was run?
Its IC50 is > 100 µM (inactive).

How did the IC50 turn out when `CC(C)OC(=O)c1cccnc1SCc1cc(=O)n2ccccc2n1` was run?
Its IC50 is > 100 µM (inactive).

With `O=C1OC(c2ccccc2)=N/C1=C\C=C\c1ccco1` as the compound, how does the IC50 read?
The IC50 was > 100 µM (inactive).

With `N#C/C(=C\c1ccc(Cl)cc1)C(=O)Nc1cccnc1` as the compound, how does the IC50 read?
The IC50 was > 100 µM (inactive).

`Cc1ccc2nc(N3C(=O)CNC3=S)sc2c1` was tested. Which IC50 did it give?
Its IC50 is > 100 µM (inactive).

How did the IC50 turn out when `O=C(Nc1ccc(-c2cn3ccccc3n2)cc1)c1cccs1` was run?
Its IC50 is > 100 µM (inactive).

For `O=C(Nc1ccc2nc(-c3ccc(Br)o3)[nH]c2c1)c1cccs1`, which IC50 is on record?
Its IC50 is > 100 µM (inactive).

`O=C(N/N=C/C=C\c1ccco1)c1cccs1` was tested. Which IC50 did it give?
The IC50 was > 100 µM (inactive).

With `N#C/C(=C/c1ccc(N2CCOCC2)o1)c1nc2ccccc2[nH]1` as the compound, how does the IC50 read?
Its IC50 is > 100 µM (inactive).

`O=c1oc(Cl)c(Cl)c2ccccc12` was tested. Which IC50 did it give?
Its IC50 is > 100 µM (inactive).

With `Cc1nc2scc(C)n2c(=O)c1S(=O)(=O)Nc1ccc(OC(F)(F)F)cc1` as the compound, how does the IC50 read?
Its IC50 is > 100 µM (inactive).

`CCOC(=O)c1ccc(NC(=O)CSc2nc(=O)n3cccc(C)c3n2)cc1` was tested. Which IC50 did it give?
The IC50 was > 100 µM (inactive).

`Cc1nc2scc(C)n2c(=O)c1S(=O)(=O)Nc1ccc(N2CCOCC2)cc1` was tested. Which IC50 did it give?
Its IC50 is > 100 µM (inactive).

Which IC50 does the source give for `O=c1c(O)c(-c2ccccc2)oc2cc(O)cc(O)c12` here?
The IC50 was > 100 µM (inactive).

For `Cc1ccc(Nc2nc(-c3cccnc3)nc3ccccc23)cc1`, which IC50 is on record?
The IC50 was > 100 µM (inactive).

Which IC50 does the source give for `O=C(Nc1ccc(-c2cn3c(n2)SCC3)cc1)c1ccco1` here?
Its IC50 is > 100 µM (inactive).

With `Cc1ccc(CS(=O)(=O)c2ncc(Cl)c(C(=O)Nc3ccc(OC(F)F)cc3)n2)cc1` as the compound, how does the IC50 read?
Its IC50 is > 100 µM (inactive).

How did the IC50 turn out when `O=c1cc(C(Cl)(Cl)Cl)oc2c1ccc1ccccc12` was run?
The IC50 was > 100 µM (inactive).

With `Cc1cc(C)nc(SCC(=O)c2cc3ccccc3oc2=O)n1` as the compound, how does the IC50 read?
Its IC50 is > 100 µM (inactive).

With `O=C(/C=C/c1ccccc1Cl)Nc1ccccc1` as the compound, how does the IC50 read?
Its IC50 is > 100 µM (inactive).

Which IC50 does the source give for `N#Cc1c(-c2ccccc2)cc(-c2ccc(O)cc2)nc1N` here?
Its IC50 is > 100 µM (inactive).

Which IC50 does the source give for `CCCN(C(=O)c1ccc([N+](=O)[O-])c(C)c1)c1c(N)n(Cc2ccccc2)c(=O)[nH]c1=O` here?
Its IC50 is > 100 µM (inactive).

With `Cc1ccc2[nH]cc(C(=O)CCl)c2c1` as the compound, how does the IC50 read?
The IC50 was > 100 µM (inactive).

How did the IC50 turn out when `O=C(Nc1cc(-c2ccccc2)[nH]n1)c1ccccc1` was run?
The IC50 was > 100 µM (inactive).

For `Cc1ccc(-c2nn(-c3ccccc3)cc2NC(=O)CCl)cc1`, which IC50 is on record?
The IC50 was > 100 µM (inactive).

`CC(C)(C)c1csc(NC(=O)c2ccc(Cl)s2)n1` was tested. Which IC50 did it give?
The IC50 was > 100 µM (inactive).

For `O=C(N/N=C/c1coc2ccc(Cl)cc2c1=O)c1ccncc1`, which IC50 is on record?
The IC50 was > 100 µM (inactive).

`C=C1CCc2c([nH]c3ccc(OCC(C)C)cc23)C1=O` was tested. Which IC50 did it give?
The IC50 was > 100 µM (inactive).

`CO/C(N)=C(\C#N)N=Cc1ccccc1Cl` was tested. Which IC50 did it give?
Its IC50 is > 100 µM (inactive).

`CCn1c(N2CCN(S(=O)(=O)c3ccc(OC)cc3)CC2)nc2ccccc21` was tested. Which IC50 did it give?
The IC50 was > 100 µM (inactive).

`COc1cc2c(cc1OC)/C(=C/c1ccc(Cl)cc1)C(=O)OC2` was tested. Which IC50 did it give?
The IC50 was > 100 µM (inactive).

With `Oc1ccccc1C1NN=C(c2ccccc2)S1` (stereo not given) as the compound, how does the IC50 read?
The IC50 was > 100 µM (inactive).

`COc1ccc2c(c1)sc1nc(-c3ccccc3)cn12` was tested. Which IC50 did it give?
Its IC50 is > 100 µM (inactive).

Which IC50 does the source give for `O=C(Nc1nc2ccccc2s1)C1CCCN1S(=O)(=O)c1ccc(Cl)cc1` (stereo not given) here?
Its IC50 is > 100 µM (inactive).

With `CN1CCc2nc3sc(C(=O)C45CC6CC(CC(C6)C4)C5)c(N)c3cc2C1` as the compound, how does the IC50 read?
The IC50 was > 100 µM (inactive).

For `COc1ccc(C(=O)N/N=C\c2coc3ccc(Cl)cc3c2=O)cc1`, which IC50 is on record?
Its IC50 is > 100 µM (inactive).

`CCCCn1c(N)c(N(CCC(C)C)C(=O)c2ccc3c(c2)OCO3)c(=O)[nH]c1=O` was tested. Which IC50 did it give?
Its IC50 is > 100 µM (inactive).

`CSc1nnc(C(C)(C)C)c(=O)n1/N=C/c1ccccc1` was tested. Which IC50 did it give?
The IC50 was > 100 µM (inactive).

For `Oc1ccc(Oc2ccc(Oc3ccc(O)cc3)cc2)cc1`, which IC50 is on record?
The IC50 was > 100 µM (inactive).

With `Cc1cc2cc(CNC(=O)c3ccc(C)c([N+](=O)[O-])c3)ccc2[nH]1` as the compound, how does the IC50 read?
Its IC50 is > 100 µM (inactive).

Which IC50 does the source give for `O=C(N/N=C/c1coc2ccc(Cl)cc2c1=O)c1cc(O)cc(O)c1` here?
The IC50 was > 100 µM (inactive).
